From US8183238B2, “Bicyclic and tricyclic compounds as KAT II inhibitors” (priority 2009, dated 2012)
Like-named read-outs stand apart in the source and are kept apart here.

Tests used:
[1] = Prodrug in vivo pharmacokinetics in rats (plasma, LC-MS-MS); settings: Wistar-Han, rat
Description: Test substances (Examples 4, 73, and 366-369) were administered by oral gavage to groups of three rats.
Blood samples were taken at various times after administration and analyzed for the parent drug (Example 4) and prodrugs (Examples 73 and 366-369) using an LC-MS-MS assay. Pharmacokinetic parameters derived from the plasma analytical data were determined using Watson LIMS version 7.2.003 (Thermo Fisher Scientific, Waltham, Mass.).

[2] = Prodrug in vivo pharmacokinetics in monkeys (plasma, LC-MS-MS); settings: Cynomolgus, cynomolgus monkey, iv, 0.3 mg/kg, plasma exposure of Example 4 in monkeys following intravenous administration of Example 4 at 0.3 mg/kg
[3] = Prodrug in vivo pharmacokinetics in dogs (plasma, LC-MS-MS); design: species or system Dog (Beagle); settings: Beagle, dog, in vivo, po, 1 mg/kg
Description: Test substances (Examples 4 and 71-73) were administered by oral gavage to groups of two dogs. Example 71 was also administered intravenously.
Blood samples were taken at various times after administration and submitted to analysis for the parent drug (Example 71) and pro-drug (Examples 72 and 73) using an LC-MS-MS assay. Pharmacokinetic parameters derived from the plasma analytical data were determined using Watson LIMS 7.2.003 (Thermo Fisher Scientific, Waltham, Mass.). The results are given in FIG. 1 and Tables 8, 9, 10, and 11.

[4] = Prodrug in vivo pharmacokinetics in monkeys (plasma, LC-MS-MS); design: species or system Monkey (Cynomolgus); settings: Example 4 in monkey plasma after oral Example 4 (10 mg/kg active); for Cmax / Tmax / half-life / AUC: Cynomolgus, cynomolgus monkey, plasma, po, 10 mg/kg; for F: calculated using IV AUC of 265 ng · h/mL
Description: Test substances (Examples 4 and 71-73) were administered by oral gavage to groups of two monkeys.
Blood samples were taken at various times after administration and submitted to analysis for the parent drug (Example 4 and Example 71) and pro-drug (Examples 72 and 73) using an LC-MS-MS assay. […] Pharmacokinetic parameters derived from the plasma analytical data were determined using Watson LIMS 7.2.003 (Thermo Fisher Scientific, Waltham, Mass.). The results are given in FIG. 2 and Tables 13, 14, and 15.

[5] = biological target: human KAT II (hKAT II) enzyme (Homo sapiens, UniProt Q8N5Z0); assay: KAT II Inhibition Spectra Assay; assay type: biochemical; settings: Table 5; hKAT II, decrease in OD370, 37° C., 15-20 h; read-out: KATII IC50
Outline: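 hKAT II (15 nM, 3× stock) converts L-kynurenine (3 mM, 3× stock) with α-ketoglutarate and PLP in Tris acetate; 15–20 h at 37 °C. Inhibition of the OD370 decrease read versus DMSO wells across a concentration range gives IC50.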

human KAT II (hKAT II) enzyme, sequence (Q8N5Z0 30-425): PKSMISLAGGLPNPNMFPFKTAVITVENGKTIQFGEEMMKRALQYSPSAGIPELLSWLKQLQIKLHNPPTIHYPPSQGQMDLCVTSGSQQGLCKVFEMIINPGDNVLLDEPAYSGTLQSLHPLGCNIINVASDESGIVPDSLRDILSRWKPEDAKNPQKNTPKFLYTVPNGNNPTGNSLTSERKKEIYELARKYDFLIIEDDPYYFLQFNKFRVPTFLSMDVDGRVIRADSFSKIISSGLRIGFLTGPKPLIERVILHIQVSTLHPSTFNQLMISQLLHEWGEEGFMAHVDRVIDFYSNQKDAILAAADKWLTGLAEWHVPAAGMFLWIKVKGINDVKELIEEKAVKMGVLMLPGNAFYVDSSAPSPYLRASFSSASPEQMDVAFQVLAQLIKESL

N[C@H]1Cc2ccccc2N(O)C1=O [Example 4, (3S)-3-amino-1-hydroxy-3,4-dihydroquinolin-2(1H)-one]
AUC increase vs. oral administration of Ex. 4 [1]: 1.0 | AUC [2]: 265 ng·h/mL | AUC increase vs. oral administration of Ex. 4 [3]: 1.0 | Cmax ([4]; Mean): 220 ng/mL | Tmax ([4]; Mean): 41.4 min | half-life ([4]; Mean): 43.8 min | AUC ([4]; Mean, read-out: AUC): 181 ng·h/mL | AUC ([4]; Mean, read-out: AUC Extrap): 186 ng·h/mL | Cmax ([4]; Monkey 1): 200 ng/mL | Tmax ([4]; Monkey 1): 60 min | half-life ([4]; Monkey 1): 46.8 min | AUC ([4]; Monkey 1, read-out: AUC): 184 ng·h/mL | AUC ([4]; Monkey 1, read-out: AUC Extrap): 188 ng·h/mL | Cmax ([4]; Monkey 2): 340 ng/mL | Tmax ([4]; Monkey 2): 15 min | half-life ([4]; Monkey 2): 49.2 min | AUC ([4]; Monkey 2, read-out: AUC): 239 ng·h/mL | AUC ([4]; Monkey 2, read-out: AUC Extrap): 247 ng·h/mL | Cmax ([4]; Monkey 3): 206 ng/mL | Tmax ([4]; Monkey 3): 30 min | half-life ([4]; Monkey 3): 40.8 min | AUC ([4]; Monkey 3, read-out: AUC): 141 ng·h/mL | AUC ([4]; Monkey 3, read-out: AUC Extrap): 144 ng·h/mL | Cmax ([4]; Monkey 4): 133 ng/mL | Tmax ([4]; Monkey 4): 60 min | half-life ([4]; Monkey 4): 37.8 min | AUC ([4]; Monkey 4, read-out: AUC): 159 ng·h/mL | AUC ([4]; Monkey 4, read-out: AUC Extrap): 163 ng·h/mL | % AUC Extrap ([4]; Mean): 2.46% | % AUC Extrap ([4]; Monkey 1): 2.28% | % AUC Extrap ([4]; Monkey 2): 3.05% | % AUC Extrap ([4]; Monkey 3): 1.96% | % AUC Extrap ([4]; Monkey 4): 2.56% | F ([4]; Mean): 2.1% | F ([4]; Monkey 1): 2.1% | F ([4]; Monkey 2): 2.8% | F ([4]; Monkey 3): 1.6% | F ([4]; Monkey 4): 1.8% | IC50 [5]: 37.5 nM
